# “Also recorded” adds a separate entry of the source.
# What was measured:
# [1] = tested on: jungle rice and Aleppo grass; assay: Field observations on activity rate: control of jungle rice and Aleppo grass (Example 3); format: in vivo; design: key: beginning of the effect (BE); death of the plant (DP); without symptoms (WS); conditions: visual, 5,000 cm^3/ha (SQUADRON 24% 10,000)
# Experimental: (§1) Products were applied on a plot with maize stubble, preparing it for sowing wheat, where most abundant weeds were Aleppo grass (Sorghum halepense), water grass, jungle rice (Echinochloa crusgalli, Echinochloa colonum), and Bermuda grass (Cynodon dactylon).
# (§2) The assessment was performed visually on 3, 4, 5, 8, and 10 days after application for jungle rice, and Aleppo grass, and 4,7,10, and 14 days for Bermuda grass, where the obtained effects were recorded and identified as follows: beginning of the effect (BE), death of the plant (DP), and without symptoms (WS).
# Bermuda grass [2] = assay: Field observations on activity rate: control of Bermuda grass (Example 3); format: in vivo, Cynodon dactylon; design: key: beginning of the effect (BE); death of the plant (DP); without symptoms (WS); conditions: visual, 5,000 cm^3/ha (SQUADRON 24% 10,000)
# Experimental: as §1, §2
# [3] = tested on: Aleppo grass, Bermuda grass, Blite, Wild buckwheat, Nutgrass; assay: Field comparison of salt, trunk mixture and Rondo on renovation ground prior to cane plantation (Example 4); format: in vivo; conditions: scale (1) out of control to (10) excellent control
# Description: APPLICATION: On renovation ground
# TYPE OF TREATMENT: TOTAL (PRIOR TO CANE PLANTATION)
# EXPERIMENTAL DESIGN: RANDOMIZED BLOCKS
# VOLUME PER HECTARE: 120 liters
# Aleppo grass = assay: Weed control in apple culture (Example 5): Aleppo grass; format: in vivo, Sorghum halepensis; conditions: 4 l/ha (1,440 g/ha 100% acid)
# Experimental: (§3) Observations: Only one dose of each product was tested in three repetitions, on areas of 2 m×8 m=16 m^2.
# Bermuda grass [4] = assay: Weed control in apple culture (Example 5): Bermuda grass; format: in vivo, Cynodon dactylon; conditions: 4 l/ha (1,440 g/ha 100% acid)
# Experimental: as §3
# Sunchillo (White aster) = assay: Weed control in apple culture (Example 5): Sunchillo; format: in vivo, Wedelia glauca; conditions: 4 l/ha (1,440 g/ha 100% acid)
# Experimental: as §3
# Apple, Red Delicious = assay: Phytotoxicity to the fruit tree (Example 5); format: in vivo; conditions: apple culture; 4 l/ha
# Experimental: Variety: Hybrid. Red Delicious.
# Phenologic status: with fruits of 2 cm diameter.
# as §3
# [5] = tested on: Blite, Pigweed, and Aleppo grass; assay: Control of soy weeds (Example 6): Blite, Pigweed, and Aleppo grass; format: in vivo, Amaranthus quitensis, Chenopodium album, Sorghum halepense
# Description: (§4) OBJECTIVE: The subject of the present assay comprises the assessment of different Glyphosate formulations on annual and perennial weeds in a resistant soy crop.
# (§5) Crop data were as follows: • Species: Soya • Variety: A-6443 • See-planting time: Second. • Preceding crop: Wheat • Density of seeds planted: 33 grains/m^2 • Density of grown plants: 28 pl/m^2 • Space between furrows: 0.52 m. • Culture system: Direct seed-planting. • Phenologic status on application: R-4/5
# (§6) Random blocks design was used, with four repetitions per treatment. The size of the parcels were: 4 m wide per 15 m long (60 m^2), totaling 240 m^2 per treatment.
# (§7) The product was applied with a carbon dioxide (CO2) hand backpack, provided with four tips separated by 0.50 m each, with a plain fan-type 110 O2 pastille. Applied volume was of 110 1/ha, at a pressure of 45 lb/cm^2
# (§8) The assessments were carried out visually by comparison with control non-applied parcels, and at 5, 10, 15, and 25 days after the application date en each case, where the intervals between each application from the beginning of the treatment were 5, 5, and 10 days, respectively.
# (§9) Variance analysis (ANOVA) and Duncan Test were performed with the results obtained, in order to detect mean differences.
# [6] = tested on: Bermuda grass and Nutgrass; assay: Control of soy weeds (Example 6): Bermuda grass and Nutgrass; format: in vivo, Cynodon dactylon, Cyperus rotundus
# Description: as §4, §5, §6, §7, §8, §9
# Soya A-6443 = assay: Phytotoxicity on the soy crop (Example 6); format: in vivo; conditions: 2,000 and 3,000 cm^2/ha; soy at R-4/5
# Description: as §4, §5, §7
# [7] = stated in the formulation process; cited from earlier work
# [8] = Glyphosate triazolamine salt 2,000 / Rondo 2,500 cm^2/ha
# [9] = Glyphosate triazolamine salt 3,000 / Rondo 5,000 cm^2/ha
compound,measurement,setting,value
"1H-1,2,4-triazole-3-yl-amine N-(phosphonomethyl)-glycine salt [Glyphosate triazolamine salt]","Control of jungle rice and Aleppo grass, 3 DAYS",[1]; 3 days after application,BE
same,"Control of jungle rice and Aleppo grass, 4 DAYS",[1]; 4 days after application,BE
same,"Control of jungle rice and Aleppo grass, 5 DAYS",[1]; 5 days after application,DP
same,"Control of jungle rice and Aleppo grass, 8 DAYS",[1]; 8 days after application,DP
same,"Control of jungle rice and Aleppo grass, 10 DAYS",[1]; 10 days after application,DP
same,"Control of Bermuda grass, 4 DAYS",Bermuda grass [2]; 4 days after application,BE
same,"Control of Bermuda grass, 7 DAYS",Bermuda grass [2]; 7 days after application,BE
same,"Control of Bermuda grass, 10 DAYS",Bermuda grass [2]; 10 days after application,DP
same,"Control of Bermuda grass, 14 DAYS",Bermuda grass [2]; 14 days after application,DP
same,"ASSAY OBSERVATIONS, control, 5 DAYS",[3]; 3 liters/ha,4
same,"ASSAY OBSERVATIONS, control, 15 DAYS",[3]; 3 liters/ha,7
same,"ASSAY OBSERVATIONS, control, 30 DAYS",[3]; 3 liters/ha,9
same,"ASSAY OBSERVATIONS, control, 5 DAYS",[3]; 4 liters/ha,4
same,"ASSAY OBSERVATIONS, control, 15 DAYS",[3]; 4 liters/ha,7
same,"ASSAY OBSERVATIONS, control, 30 DAYS",[3]; 4 liters/ha,10
same,"COUNT, averages of blocks, A (Aleppo grass)",Aleppo grass; 38 days after application,65
same,"COUNT, averages of blocks, A (Aleppo grass)",Aleppo grass; 51 days after application,85
same,"COUNT, averages of blocks, A (Aleppo grass)",Aleppo grass; 99 days after application,95
same,"COUNT, averages of blocks, B (Bermuda grass)",Bermuda grass [4]; 38 days after application,70
same,"COUNT, averages of blocks, B (Bermuda grass)",Bermuda grass [4]; 51 days after application,80
same,"COUNT, averages of blocks, B (Bermuda grass)",Bermuda grass [4]; 99 days after application,90
same,"COUNT, averages of blocks, C (Sunchillo)",Sunchillo (White aster); 38 days after application,75
same,"COUNT, averages of blocks, C (Sunchillo)",Sunchillo (White aster); 51 days after application,90
same,"COUNT, averages of blocks, C (Sunchillo)",Sunchillo (White aster); 99 days after application,98
same,phytotoxicity to the fruit tree,"Apple, Red Delicious",No phytotoxicity to the fruit tree was observed
same,"Control % after 5 DAYS, data average by assessment date",[5]; [8],58.33%
same,"Control % after 10 DAYS, data average by assessment date",[5]; [8],100.00%
same,"Control % after 15 DAYS, data average by assessment date",[5]; [8],100.00%
same,"Control % after 25 DAYS, data average by assessment date",[5]; [8],100.00%
same,"Control % after 5 days, I",[5]; [8],60%
same,"Control % after 5 days, II",[5]; [8],55%
same,"Control % after 5 days, III",[5]; [8],60%
same,"Control % after 5 days, MEAN",[5]; [8],58.33%
same,"Control % after 10 days, I",[5]; [8],100%
same,"Control % after 10 days, II",[5]; [8],100%
same,"Control % after 10 days, III",[5]; [8],100%
same,"Control % after 10 days, MEAN",[5]; [8],100.00%
same,"Control % after 15 days, I",[5]; [8],100%
same,"Control % after 15 days, II",[5]; [8],100%
same,"Control % after 15 days, III",[5]; [8],100%
same,"Control % after 15 days, MEAN",[5]; [8],100.00%
same,"Control % after 5 DAYS, data average by assessment date",[5]; [9],95.00%
same,"Control % after 10 DAYS, data average by assessment date",[5]; [9],100.00%
same,"Control % after 15 DAYS, data average by assessment date",[5]; [9],100.00%
same,"Control % after 25 DAYS, data average by assessment date",[5]; [9],100.00%
same,"Control % after 5 days, I",[5]; [9],100%
same,"Control % after 5 days, II",[5]; [9],90%
same,"Control % after 5 days, III",[5]; [9],95%
same,"Control % after 5 days, MEAN",[5]; [9],95.00%
same,"Control % after 10 days, I",[5]; [9],100%
same,"Control % after 10 days, II",[5]; [9],100%
same,"Control % after 10 days, III",[5]; [9],100%
same,"Control % after 10 days, MEAN",[5]; [9],100.00%
same,"Control % after 15 days, I",[5]; [9],100%
same,"Control % after 15 days, II",[5]; [9],100%
same,"Control % after 15 days, III",[5]; [9],100%
same,"Control % after 15 days, MEAN",[5]; [9],100.00%
same,"Control % after 10 days, I (TABLE NO. 4)",[5]; [8],100%
same,"Control % after 10 days, II (TABLE NO. 4)",[5]; [8],100%
same,"Control % after 10 days, III (TABLE NO. 4)",[5]; [8],100%
same,"Control % after 10 days, MEAN (TABLE NO. 4)",[5]; [8],100.00%
same,"Control % after 10 days, I (TABLE NO. 4)",[5]; [9],100%
same,"Control % after 10 days, II (TABLE NO. 4)",[5]; [9],100%
same,"Control % after 10 days, III (TABLE NO. 4)",[5]; [9],100%
same,"Control % after 10 days, MEAN (TABLE NO. 4)",[5]; [9],100.00%
same,"Control % after 5 days, I",[6]; [8],60%
same,"Control % after 5 days, II",[6]; [8],50%
same,"Control % after 5 days, III",[6]; [8],50%
same,"Control % after 5 days, MEAN",[6]; [8],53.00%
same,"Control % after 10 days, I",[6]; [8],75%
same,"Control % after 10 days, II",[6]; [8],90%
same,"Control % after 10 days, III",[6]; [8],90%
same,"Control % after 10 days, MEAN",[6]; [8],85.00%
same,"Control % after 15 days, I",[6]; [8],85%
same,"Control % after 15 days, II",[6]; [8],90%
same,"Control % after 15 days, III",[6]; [8],90%
same,"Control % after 15 days, MEAN",[6]; [8],88.33%
same,"Control % after 25 days, I",[6]; [8],85%
same,"Control % after 25 days, II",[6]; [8],90%
same,"Control % after 25 days, III",[6]; [8],90%
same,"Control % after 25 days, MEAN",[6]; [8],88.33%
same,"Control %, 5 DAYS, data average by assessment date",[6]; [8],53.33 B %
same,"Control %, 10 DAYS, data average by assessment date",[6]; [8],85.00 BC %
same,"Control %, 15 DAYS, data average by assessment date",[6]; [8],88.33 B %
same,"Control %, 25 DAYS, data average by assessment date",[6]; [8],83.33 B %
same,"Control % after 5 days, I",[6]; [9],70%
same,"Control % after 5 days, II",[6]; [9],80%
same,"Control % after 5 days, III",[6]; [9],75%
same,"Control % after 5 days, MEAN",[6]; [9],75.00%
same,"Control % after 10 days, I",[6]; [9],100%
same,"Control % after 10 days, II",[6]; [9],100%
same,"Control % after 10 days, III",[6]; [9],100%
same,"Control % after 10 days, MEAN",[6]; [9],100.00%
same,"Control % after 15 days, I",[6]; [9],100%
same,"Control % after 15 days, II",[6]; [9],100%
same,"Control % after 15 days, III",[6]; [9],100%
same,"Control % after 15 days, MEAN",[6]; [9],100.00%
same,"Control % after 25 days, I",[6]; [9],100%
same,"Control % after 25 days, II",[6]; [9],100%
same,"Control % after 25 days, III",[6]; [9],100%
same,"Control % after 25 days, MEAN",[6]; [9],100.00%
same,"Control %, 5 DAYS, data average by assessment date",[6]; [9],75.00 A %
same,"Control %, 10 DAYS, data average by assessment date",[6]; [9],100.00 A %
same,"Control %, 15 DAYS, data average by assessment date",[6]; [9],100.00 A %
same,"Control %, 25 DAYS, data average by assessment date",[6]; [9],100.00 A %
same,final control over Bermuda grass and nutgrass,"[6]; higher dosage treatments: Glyphosate triazolamine salt 3,000 / Rondo 5,000 cm^2/ha",total control
same,phytotoxicity on soy leaves / soy crops,Soya A-6443,showed phytotoxicity problems on soy leaves; also recorded: showed phytotoxicity over soy crops
"O=C(O)CNCP(=O)(O)O [Glyphosate, N-(phosphonomethyl)-glycine]",solubility in water (general statement),[7],practically non-soluble in water
"Nc1nc[nH]n1 [triazolamine, 1H-1,2,4-triazol-3-yl-amine]",solubility in water (general statement),[7],quite soluble

# Source: patent US20050054531A1, “N-(phosphonomethyl) glycine (glyphosate) salt, a preparation process thereof, a concentrate composition and a phytotoxic formulation comprising it, and a method to combat weeds in a crop with a formulation thereto” (priority 2003, published 2005)
